{"source": "patent US20170065327A1", "about": "“METHODS AND MATERIALS FOR TREATING ELEVATED SYMPATHETIC NERVE ACTIVITY CONDITIONS” (Mayo Foundation for Medical Education and Research, priority 2014, published 2017)", "key": {"[1]": {"test_system": "young and older postmenopausal women", "assay": "Autonomic (ganglionic) blockade with trimethaphan camsylate in young and older postmenopausal women: muscle sympathetic nerve activity, arterial pressure, total peripheral resistance", "type": "in vivo, human", "details": "during trimethaphan", "source_text": "(§1) FIG. 1 is a graph plotting muscle sympathetic nerve activity (MSNA; bursts/min) as measured using a microneurography technique for 24 humans. The dose indicates the amount of trimethaphan in mg/min it took to abolish the sympathetic nerve bursts. The MSNA bursts per minute is the amount of sympathetic bursts that occurred at baseline, prior to drug infusion.\n(§2) FIG. 2 is a graph plotting the same dose of trimethaphan in mg/min compared to the difference in mean arterial pressure (MAP) between baseline and at the final trimethaphan dose.\nThe effect of ganglionic blockade on arterial blood pressure and how this relates to baseline muscle sympathetic nerve activity in 12 young (25±1 years) and 12 older postmenopausal (61±2 years) women were examined. The women were studied before and during autonomic blockade using trimethaphan camsylate. At baseline, muscle sympathetic nerve activity burst frequency and burst incidence were higher in the older women (33±3 versus 15±1 bursts/min; 57±5 versus 25±2 bursts/100 heartbeats, respectively; P<0.05). Muscle sympathetic nerve activity bursts were abolished by trimethaphan within minutes (e.g., between about 6 and about 35 minutes). […] Baseline muscle sympathetic nerve activity was associated with the decrease in mean arterial pressure during trimethaphan (r=−0.74; P<0.05). See, also, Barnes et al., Hypertension, 63:303-308 (2014)."}, "[2]": {"test_system": "healthy humans", "assay": "Brief escalating infusion of trimethaphan camsylate with non-invasive beat-to-beat arterial pressure measurement to distinguish high and low sympathetic activity individuals", "type": "in vivo, human", "details": "infusion 1-4 mg/minute for 5-10 minutes, 24 healthy humans", "source_text": "as §1, §2\nBoth normal human subjects and patients with diseases such as resistant hypertension can have very wide ranges of baseline sympathetic activity. The following was developed to distinguish those individuals with high levels of baseline sympathetic activity from individuals with lower levels of baseline sympathetic activity. Trimethaphan camsylate, a ganglionic blocking drug, was administered (e.g., by infusion) at 1-4 mg/minute for 5-10 minutes to 24 healthy humans, while non-invasive beat-to-beat measurements of arterial pressure were made. […] The relationship between the fall in blood pressure and baseline sympathetic activity in a group of about 20-30 healthy women ranging in age from their early 20's to their later 60's was determined (FIGS. 1 and 2). Similar data were obtained using healthy men. […]"}, "[3]": {"details": "older postmenopausal women (61±2 years, n=12), P<0.01 versus young"}}}
{"smiles": "O=C1N(Cc2ccccc2)C2C[S+]3CCCC3C2N1Cc1ccccc1", "note": "(stereo not drawn) [trimethaphan, trimethaphan camsylate]", "values": [{"measurement": "Muscle sympathetic nerve activity bursts", "setting": "[1]; 12 young and 12 older postmenopausal women", "value": "abolished"}, {"measurement": "decrease in mean arterial pressure", "setting": "[1]; [3]", "value": "−29±2", "unit": "mm Hg"}, {"measurement": "decrease in total peripheral resistance", "setting": "[1]; [3]", "value": "−10±1", "unit": "mm Hg/L per minute"}, {"measurement": "decrease in mean arterial pressure", "setting": "[1]; young women (25±1 years, n=12)", "value": "−9±2", "unit": "mm Hg"}, {"measurement": "decrease in total peripheral resistance", "setting": "[1]; young women (25±1 years, n=12)", "value": "−5±1", "unit": "mm Hg/L per minute"}, {"measurement": "fall in blood pressure during brief escalating doses", "setting": "[2]", "value": "directly related to baseline sympathetic activity"}]}
